Measured values: ChEMBL document CHEMBL1201862, “PubChem BioAssay data set” (2004)
Activity calls are given as the source filed them.

What was measured:
CAAX prenyl protease 2 = target: T1, CAAX prenyl protease 2 (Saccharomyces cerevisiae S288c, UniProt Q03530); format: biochemical
T1 sequence (Q03530 whole entry): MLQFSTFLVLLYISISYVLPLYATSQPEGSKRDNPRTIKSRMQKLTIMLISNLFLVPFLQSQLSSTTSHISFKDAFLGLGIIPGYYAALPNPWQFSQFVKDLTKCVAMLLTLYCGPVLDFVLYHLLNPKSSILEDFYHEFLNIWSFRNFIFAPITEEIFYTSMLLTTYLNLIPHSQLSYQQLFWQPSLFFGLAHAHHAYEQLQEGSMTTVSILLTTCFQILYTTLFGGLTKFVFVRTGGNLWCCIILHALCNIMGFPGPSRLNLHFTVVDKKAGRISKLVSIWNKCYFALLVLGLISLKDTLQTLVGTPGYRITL

[1] = inhibitors of firefly luciferase expression or activity, dose response, H4 neuroglioma cells, luminescence (AID 1990); format: functional, cell-based
BJ [2] = experiment: cytotoxicity toward BJ-TERT fibroblasts, dose response, cell-based, RAS-independent, luminescence (AID 1933); format: functional; conditions: Homo sapiens
[3] = Luminescence Cell-Based Dose Response HTS to Identify Inhibitors of 5'UTR Stem-Loop Driven Prion Protein mRNA Translation in H4 Neuroglioblastoma Cells. [Related pubchem assays: 1827 (Project Summary), 1813 (Primary HTS)]; format: functional
[4] = inhibitors of SNCA 5'UTR-driven reporter translation, confirmation, H4 neuroglioma cells, luminescence (AID 1988); format: functional, cell-based
BJ [5] = experiment: cells; format: functional, cell-based; conditions: Homo sapiens
BJ [6] = experiment: cytotoxicity toward BJ-TERT-LT-ST fibroblasts, dose response, cell-based, RAS-independent, luminescence (AID 1935); format: functional; conditions: Homo sapiens;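 note: BJ fibroblasts immortalized with TERT plus LT and ST oncogenes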
[7] = cytotoxicity toward DRD oncogenic fibroblasts, dose response, cell-based, non-viral oncogenic, luminescence (AID 1934); format: functional; conditions: Homo sapiens
[8] = target: T2, G-protein coupled receptor 55 (Homo sapiens, UniProt Q9Y2T6); experiment: GPR55 agonists via beta-arrestin recruitment, primary screen, imaging, U2OS cells, beta-arrestin-GFP redistribution (AID 1961); format: functional
T2 sequence (Q9Y2T6 whole entry): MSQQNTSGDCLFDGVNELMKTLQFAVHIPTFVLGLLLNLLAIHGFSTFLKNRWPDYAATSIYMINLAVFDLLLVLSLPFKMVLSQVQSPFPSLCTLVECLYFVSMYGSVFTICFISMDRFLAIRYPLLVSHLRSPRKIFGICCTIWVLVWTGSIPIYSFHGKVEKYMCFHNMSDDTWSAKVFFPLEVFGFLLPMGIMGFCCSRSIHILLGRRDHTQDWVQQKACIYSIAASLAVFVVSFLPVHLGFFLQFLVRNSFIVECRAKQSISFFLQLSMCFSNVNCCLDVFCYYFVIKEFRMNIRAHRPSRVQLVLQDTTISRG

Vero [9] = experiment: cells; format: functional, cell-based; conditions: Chlorocebus sabaeus
Vero [10] = experiment: cells; format: functional; conditions: Chlorocebus sabaeus
Beta-galactosidase = Beta-galactosidase (Escherichia coli, UniProt Q8VNN2); experiment: PubChem AID 485352; format: functional
Beta-galactosidase, sequence (Q8VNN2 whole entry): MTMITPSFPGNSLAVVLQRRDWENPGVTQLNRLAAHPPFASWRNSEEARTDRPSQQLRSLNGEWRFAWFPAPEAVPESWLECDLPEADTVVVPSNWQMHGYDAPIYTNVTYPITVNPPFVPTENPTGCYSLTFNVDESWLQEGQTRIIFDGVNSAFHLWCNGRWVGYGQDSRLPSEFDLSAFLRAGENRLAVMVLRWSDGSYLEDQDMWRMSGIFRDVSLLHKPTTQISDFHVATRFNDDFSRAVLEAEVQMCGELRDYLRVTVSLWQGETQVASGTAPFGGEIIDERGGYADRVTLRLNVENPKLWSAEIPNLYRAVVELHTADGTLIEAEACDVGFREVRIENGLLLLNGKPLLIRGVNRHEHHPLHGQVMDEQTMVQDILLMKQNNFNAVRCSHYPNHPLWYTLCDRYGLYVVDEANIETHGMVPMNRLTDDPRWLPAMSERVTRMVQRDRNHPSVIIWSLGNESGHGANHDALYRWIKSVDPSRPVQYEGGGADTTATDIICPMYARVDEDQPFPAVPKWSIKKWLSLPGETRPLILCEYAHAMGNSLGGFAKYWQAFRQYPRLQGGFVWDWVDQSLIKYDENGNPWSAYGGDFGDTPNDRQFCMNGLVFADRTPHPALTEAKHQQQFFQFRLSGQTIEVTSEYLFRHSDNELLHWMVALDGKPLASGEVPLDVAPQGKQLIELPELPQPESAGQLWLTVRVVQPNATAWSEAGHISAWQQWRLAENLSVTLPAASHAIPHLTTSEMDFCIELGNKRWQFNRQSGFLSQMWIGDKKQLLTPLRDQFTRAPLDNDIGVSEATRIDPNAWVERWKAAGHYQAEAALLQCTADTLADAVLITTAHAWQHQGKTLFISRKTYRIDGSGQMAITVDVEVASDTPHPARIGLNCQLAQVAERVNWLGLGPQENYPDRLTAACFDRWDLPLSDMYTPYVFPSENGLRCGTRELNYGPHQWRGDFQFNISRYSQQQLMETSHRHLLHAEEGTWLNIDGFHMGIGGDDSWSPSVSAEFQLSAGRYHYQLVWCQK

[11] = target: T3, Type-1 angiotensin II receptor (Homo sapiens, UniProt P30556); experiment: AT1 receptor antagonists, dose response, selectivity assay for APJ receptor antagonist project, cell-based, uHTS hits (AID 463214); format: functional;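 note: antagonist potency against angiotensin II stimulated AT1 response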
T3 sequence (P30556 whole entry): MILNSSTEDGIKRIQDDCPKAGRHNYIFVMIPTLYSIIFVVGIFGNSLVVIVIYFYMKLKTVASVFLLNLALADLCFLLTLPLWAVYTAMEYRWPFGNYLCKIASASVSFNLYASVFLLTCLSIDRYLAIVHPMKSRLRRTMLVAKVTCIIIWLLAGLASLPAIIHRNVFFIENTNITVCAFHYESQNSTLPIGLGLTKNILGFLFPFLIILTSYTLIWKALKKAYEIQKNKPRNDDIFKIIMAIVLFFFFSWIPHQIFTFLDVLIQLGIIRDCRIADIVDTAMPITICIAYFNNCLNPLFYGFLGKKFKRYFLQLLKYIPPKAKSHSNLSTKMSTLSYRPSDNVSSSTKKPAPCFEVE

Saccharomyces cerevisiae = experiment: NALP1 inhibitor project selectivity study, Caspase-1/ASC signal blockade IC50 in S. cerevisiae (AID 488863); format: functional, organism-based
[12] = target: T4, NACHT, LRR and PYD domains-containing protein 1 (Homo sapiens, UniProt Q9C000); experiment: NALP1 inhibitors in yeast, dose response, luminescent (AID 488860); format: functional
T4 sequence (Q9C000 whole entry): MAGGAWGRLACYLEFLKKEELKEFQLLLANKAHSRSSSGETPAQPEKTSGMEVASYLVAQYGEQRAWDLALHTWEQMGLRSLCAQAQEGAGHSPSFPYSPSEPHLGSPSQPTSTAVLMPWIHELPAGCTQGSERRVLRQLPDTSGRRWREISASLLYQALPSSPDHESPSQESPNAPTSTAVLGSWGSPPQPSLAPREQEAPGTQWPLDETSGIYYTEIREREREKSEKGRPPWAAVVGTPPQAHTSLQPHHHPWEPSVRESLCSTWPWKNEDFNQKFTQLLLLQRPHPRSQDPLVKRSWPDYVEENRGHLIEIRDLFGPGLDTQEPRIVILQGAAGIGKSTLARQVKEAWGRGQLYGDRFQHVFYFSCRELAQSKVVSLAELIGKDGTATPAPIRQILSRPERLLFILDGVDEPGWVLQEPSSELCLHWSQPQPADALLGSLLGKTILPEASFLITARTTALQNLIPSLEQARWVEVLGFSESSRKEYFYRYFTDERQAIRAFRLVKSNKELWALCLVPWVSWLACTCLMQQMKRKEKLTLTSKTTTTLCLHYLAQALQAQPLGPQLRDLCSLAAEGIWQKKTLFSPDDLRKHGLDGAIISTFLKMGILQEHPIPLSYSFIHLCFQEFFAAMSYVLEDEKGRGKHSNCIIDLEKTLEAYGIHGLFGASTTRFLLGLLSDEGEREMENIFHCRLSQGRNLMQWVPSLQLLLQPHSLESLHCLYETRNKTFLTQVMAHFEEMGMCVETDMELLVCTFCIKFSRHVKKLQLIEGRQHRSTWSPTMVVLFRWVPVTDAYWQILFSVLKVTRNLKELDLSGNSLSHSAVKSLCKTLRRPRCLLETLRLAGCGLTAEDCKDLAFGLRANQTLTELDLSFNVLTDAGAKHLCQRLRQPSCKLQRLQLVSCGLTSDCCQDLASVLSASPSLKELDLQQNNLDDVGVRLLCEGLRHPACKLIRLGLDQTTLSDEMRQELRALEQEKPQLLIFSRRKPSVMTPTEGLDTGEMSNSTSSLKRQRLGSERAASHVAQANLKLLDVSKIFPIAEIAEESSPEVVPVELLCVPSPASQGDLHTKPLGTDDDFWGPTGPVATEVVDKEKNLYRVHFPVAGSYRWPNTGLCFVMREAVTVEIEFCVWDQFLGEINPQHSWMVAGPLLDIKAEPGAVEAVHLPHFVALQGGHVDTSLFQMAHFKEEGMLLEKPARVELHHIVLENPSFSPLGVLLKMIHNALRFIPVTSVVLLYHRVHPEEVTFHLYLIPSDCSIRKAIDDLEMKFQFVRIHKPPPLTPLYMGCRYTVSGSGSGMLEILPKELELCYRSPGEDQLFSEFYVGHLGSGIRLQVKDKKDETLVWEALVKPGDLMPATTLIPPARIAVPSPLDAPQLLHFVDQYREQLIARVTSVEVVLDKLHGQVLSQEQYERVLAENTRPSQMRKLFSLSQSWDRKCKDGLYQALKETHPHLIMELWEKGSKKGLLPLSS

[13] = target: Voltage-dependent T-type calcium channel subunit alpha-1H (Homo sapiens, UniProt O95180); format: functional;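 note: channel activity triggered by adding a high calcium stimulation buffer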
Voltage-dependent T-type calcium channel subunit alpha-1H, sequence (O95180 whole entry): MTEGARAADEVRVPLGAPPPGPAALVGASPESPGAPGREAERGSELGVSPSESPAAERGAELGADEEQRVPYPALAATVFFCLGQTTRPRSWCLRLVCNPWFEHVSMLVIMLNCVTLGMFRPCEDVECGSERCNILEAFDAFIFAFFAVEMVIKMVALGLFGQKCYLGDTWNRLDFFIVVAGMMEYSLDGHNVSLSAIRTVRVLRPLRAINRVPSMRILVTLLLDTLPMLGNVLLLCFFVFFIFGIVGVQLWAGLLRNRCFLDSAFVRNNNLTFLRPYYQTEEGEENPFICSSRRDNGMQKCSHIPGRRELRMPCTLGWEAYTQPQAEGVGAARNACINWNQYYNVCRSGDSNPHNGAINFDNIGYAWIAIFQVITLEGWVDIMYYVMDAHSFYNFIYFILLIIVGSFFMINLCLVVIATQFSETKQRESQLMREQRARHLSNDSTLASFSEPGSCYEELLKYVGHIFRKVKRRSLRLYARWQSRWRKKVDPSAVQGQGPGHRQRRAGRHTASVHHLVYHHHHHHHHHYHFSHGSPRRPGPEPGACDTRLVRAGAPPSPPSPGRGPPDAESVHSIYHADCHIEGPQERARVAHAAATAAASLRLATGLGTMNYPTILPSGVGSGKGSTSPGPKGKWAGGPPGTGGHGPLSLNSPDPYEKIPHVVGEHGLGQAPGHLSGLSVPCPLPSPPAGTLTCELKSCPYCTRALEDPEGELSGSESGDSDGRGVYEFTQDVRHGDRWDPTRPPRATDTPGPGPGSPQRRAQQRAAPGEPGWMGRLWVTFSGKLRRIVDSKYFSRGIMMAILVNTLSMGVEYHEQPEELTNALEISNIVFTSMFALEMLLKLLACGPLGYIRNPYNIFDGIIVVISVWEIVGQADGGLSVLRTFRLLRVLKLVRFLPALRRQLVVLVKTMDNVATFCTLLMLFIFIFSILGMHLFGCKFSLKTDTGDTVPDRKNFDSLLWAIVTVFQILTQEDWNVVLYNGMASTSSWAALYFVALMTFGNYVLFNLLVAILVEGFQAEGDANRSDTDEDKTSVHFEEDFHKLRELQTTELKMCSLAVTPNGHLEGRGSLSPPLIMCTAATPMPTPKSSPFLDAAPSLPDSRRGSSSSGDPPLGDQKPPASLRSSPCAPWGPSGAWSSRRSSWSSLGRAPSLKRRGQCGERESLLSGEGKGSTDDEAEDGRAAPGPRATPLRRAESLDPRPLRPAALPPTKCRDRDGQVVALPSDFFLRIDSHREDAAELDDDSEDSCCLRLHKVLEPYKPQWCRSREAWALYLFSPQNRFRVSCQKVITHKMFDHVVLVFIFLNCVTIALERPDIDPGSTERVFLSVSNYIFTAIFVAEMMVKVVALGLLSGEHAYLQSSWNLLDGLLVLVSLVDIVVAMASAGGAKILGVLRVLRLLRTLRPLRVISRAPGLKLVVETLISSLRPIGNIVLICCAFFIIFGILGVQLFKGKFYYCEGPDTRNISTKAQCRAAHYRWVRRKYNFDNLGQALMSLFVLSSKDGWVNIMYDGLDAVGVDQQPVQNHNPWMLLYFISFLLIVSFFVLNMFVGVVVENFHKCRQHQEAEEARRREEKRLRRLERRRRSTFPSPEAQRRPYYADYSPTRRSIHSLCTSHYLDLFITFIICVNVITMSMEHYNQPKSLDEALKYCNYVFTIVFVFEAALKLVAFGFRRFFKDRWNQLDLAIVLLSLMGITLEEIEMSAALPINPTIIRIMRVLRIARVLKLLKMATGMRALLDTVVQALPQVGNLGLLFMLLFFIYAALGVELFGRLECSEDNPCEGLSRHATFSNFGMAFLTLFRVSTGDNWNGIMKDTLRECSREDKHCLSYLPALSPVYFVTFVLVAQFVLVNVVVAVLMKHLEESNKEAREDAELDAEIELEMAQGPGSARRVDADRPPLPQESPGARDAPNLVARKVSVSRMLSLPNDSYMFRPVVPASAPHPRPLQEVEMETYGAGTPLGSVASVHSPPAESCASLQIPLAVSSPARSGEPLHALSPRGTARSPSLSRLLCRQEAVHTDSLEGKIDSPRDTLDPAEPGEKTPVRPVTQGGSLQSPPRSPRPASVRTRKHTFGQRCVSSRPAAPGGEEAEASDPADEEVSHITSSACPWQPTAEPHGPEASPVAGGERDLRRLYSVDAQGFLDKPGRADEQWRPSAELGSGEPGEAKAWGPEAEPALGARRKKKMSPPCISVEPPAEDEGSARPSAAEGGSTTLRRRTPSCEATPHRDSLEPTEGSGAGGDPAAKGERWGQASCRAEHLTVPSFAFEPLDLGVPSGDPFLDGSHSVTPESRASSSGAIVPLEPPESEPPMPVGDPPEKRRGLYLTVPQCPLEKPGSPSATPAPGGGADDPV

[14] = target: Glyceraldehyde-3-phosphate dehydrogenase (Homo sapiens, UniProt P04406)
Glyceraldehyde-3-phosphate dehydrogenase, sequence (P04406 whole entry): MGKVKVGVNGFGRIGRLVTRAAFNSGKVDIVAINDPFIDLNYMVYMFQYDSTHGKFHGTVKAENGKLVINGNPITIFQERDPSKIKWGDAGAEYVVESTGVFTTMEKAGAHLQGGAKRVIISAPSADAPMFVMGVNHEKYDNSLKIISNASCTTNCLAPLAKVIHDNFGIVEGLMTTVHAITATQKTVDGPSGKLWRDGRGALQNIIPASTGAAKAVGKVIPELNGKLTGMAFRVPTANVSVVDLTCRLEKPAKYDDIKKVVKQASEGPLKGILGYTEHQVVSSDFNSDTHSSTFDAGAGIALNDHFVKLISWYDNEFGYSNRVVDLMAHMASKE

[15] = inhibitors of intracellular T. cruzi replication, confirmation, NIH3T3 host cells, beta-gal luminescence (AID 2044); format: functional, cell-based;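 note: intracellular parasites grown in NIH/3T3 mouse fibroblasts as host cells; luminescent beta-galactosidase reporter signal from transgenic T. cruzi replicating inside host cells; inhibitors lower the luminescence signal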
[16] = cytotoxicity toward NIH3T3 fibroblasts, dose response, counter-screen, cell-based, ATP luminescence, mouse fibroblasts (AID 2010); format: functional;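 note: cells exposed to compound for about 90 hours before reading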
fMet-Leu-Phe receptor = target: T5, fMet-Leu-Phe receptor (Homo sapiens, UniProt P21462); experiment: FPR ligands, dose response (AID 519); format: functional
T5 sequence (P21462 whole entry): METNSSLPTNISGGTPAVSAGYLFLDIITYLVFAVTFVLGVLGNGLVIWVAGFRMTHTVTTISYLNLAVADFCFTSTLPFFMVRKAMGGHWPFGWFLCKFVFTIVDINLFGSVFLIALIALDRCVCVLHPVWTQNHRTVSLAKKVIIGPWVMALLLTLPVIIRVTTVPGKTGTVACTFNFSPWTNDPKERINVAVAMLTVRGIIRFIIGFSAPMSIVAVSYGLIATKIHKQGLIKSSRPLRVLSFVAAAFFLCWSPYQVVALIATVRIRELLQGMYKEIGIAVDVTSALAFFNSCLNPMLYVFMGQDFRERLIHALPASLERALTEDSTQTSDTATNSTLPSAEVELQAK

Cytochrome P450 2D6 = Cytochrome P450 2D6 (Homo sapiens, UniProt P10635);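 note: CYP2D6 member of a cytochrome P450 panel assay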
Cytochrome P450 2D6, sequence (P10635 whole entry): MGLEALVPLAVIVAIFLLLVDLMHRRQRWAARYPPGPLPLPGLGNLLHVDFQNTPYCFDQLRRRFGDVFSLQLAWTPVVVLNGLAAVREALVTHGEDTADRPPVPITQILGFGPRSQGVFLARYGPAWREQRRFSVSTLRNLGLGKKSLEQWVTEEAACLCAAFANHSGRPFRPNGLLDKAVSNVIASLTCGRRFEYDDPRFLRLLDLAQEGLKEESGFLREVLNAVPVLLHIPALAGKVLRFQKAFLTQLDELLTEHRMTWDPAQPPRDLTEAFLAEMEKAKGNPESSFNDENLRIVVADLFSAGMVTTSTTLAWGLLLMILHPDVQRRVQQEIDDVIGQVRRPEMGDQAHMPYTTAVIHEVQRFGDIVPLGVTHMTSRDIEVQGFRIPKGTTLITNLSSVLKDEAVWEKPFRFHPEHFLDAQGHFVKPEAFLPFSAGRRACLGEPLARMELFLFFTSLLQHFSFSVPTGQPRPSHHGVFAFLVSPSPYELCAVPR

Cytochrome P450 1A2 = target: T6, Cytochrome P450 1A2 (Homo sapiens, UniProt P05177);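 note: PubChem cytochrome P450 panel assay, CYP1A2 panel member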
T6 sequence (P05177 whole entry): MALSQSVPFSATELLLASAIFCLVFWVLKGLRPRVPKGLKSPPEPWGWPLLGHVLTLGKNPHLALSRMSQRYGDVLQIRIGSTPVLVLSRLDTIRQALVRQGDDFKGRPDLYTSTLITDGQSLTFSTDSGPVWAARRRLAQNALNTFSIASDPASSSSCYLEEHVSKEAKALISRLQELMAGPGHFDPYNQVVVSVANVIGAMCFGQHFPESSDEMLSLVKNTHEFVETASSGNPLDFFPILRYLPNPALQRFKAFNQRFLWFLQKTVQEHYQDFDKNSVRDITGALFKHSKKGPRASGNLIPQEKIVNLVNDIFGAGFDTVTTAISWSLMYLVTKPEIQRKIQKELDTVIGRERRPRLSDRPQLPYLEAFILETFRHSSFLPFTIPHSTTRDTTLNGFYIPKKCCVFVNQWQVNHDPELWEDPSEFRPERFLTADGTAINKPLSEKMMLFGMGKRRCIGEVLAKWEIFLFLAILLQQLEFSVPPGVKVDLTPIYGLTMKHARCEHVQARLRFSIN

[17] = target: T2, G-protein coupled receptor 55; experiment: GPR55 antagonists blocking LPI-driven arrestin recruitment, primary screen, imaging, U2OS, beta-arrestin-GFP, LPI agonist (AID 2013); format: functional;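 note: antagonist potency measured as reduced agonist-driven arrestin aggregation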

COc1ccccc1NC(=O)Cc1nnc(SCC(=O)Nc2nccs2)n1C
AC50 (CAAX prenyl protease 2): 21.1 µM (active)

CC(=O)Nc1cccc(Oc2ncnc3scc(-c4ccc(C(C)C)cc4)c23)c1
EC50 [1]: 21.7 µM (active) | EC50 (BJ [2]): 42.6 µM (active) | EC50 [3]: > 120 µM (not active) | EC50 [4]: 18.2 µM (active) | EC50 (BJ [5]): 61.5 µM (active) | EC50 (BJ [6]): > 150 µM (inconclusive) | EC50 [7]: 31.3 µM (active) | EC50 [8]: 6.01 µM (active) | IC50 (Vero [9]): 17.7 µM (active) | CC50 (Vero [10]): > 25 µM (active)

Cc1ccc(-c2c(C(=O)N/N=C/c3cccc(Cl)c3)nnn2-c2nonc2N)cc1
EC50 (Beta-galactosidase): > 40 µM (inactive) | IC50 [11]: > 40 µM (not active) | AC50 (CAAX prenyl protease 2): 1.44 µM (active)

CCc1ccc(C(=O)NCc2ccc(Cl)cc2Cl)cc1
IC50 (Saccharomyces cerevisiae): 61 µM (active) | IC50 [12]: 33.9 µM (active)

CCCn1c(NCc2cc(OC)ccc2OC)nc2ccccc21
EC50 [13]: 5.97 µM (active)

O=C(O)c1cccc(N2C(=O)c3ccc4c5c(ccc(c35)C2=O)CC4)c1
IC50 [14]: > 100 µM (not active)

Cc1ccc(C(=O)/C=C\C(=O)c2ccc(C)cc2)cc1
EC50 [15]: 1.97 µM (active) | EC50 [16]: > 60 µM (not active) | IC50 (Saccharomyces cerevisiae): 6.51 µM (active) | IC50 [12]: 8.75 µM (active)

Cc1nn2c(O)c3c(nc2c1-c1cccc2ccccc12)CCC3
EC50 [8]: 8.52 µM (active) | Ki (fMet-Leu-Phe receptor): 53.7 µM (inactive) | AC50 (Cytochrome P450 2D6): 35.5 µM (inconclusive) | AC50 (Cytochrome P450 1A2): 25.1 µM (inconclusive)

Cn1cccc1Cc1nnc(SCC(=O)Nc2cccc(Cl)c2)n1-c1ccc(F)cc1
EC50 [13]: 1.24 µM (active)

Cc1ccc(C(=O)N(c2ccccc2)C2CC(C)N(C(=O)c3ccco3)c3ccccc32)cc1 (centres undefined)
IC50 [17]: 2.41 µM (active)

Cc1ccc(CNC(=O)C(=O)NCC2OCCN2S(=O)(=O)c2ccc3c(c2)OCCO3)cc1 (centres undefined)
EC50 [13]: 4.92 µM (active)
